Measurements taken from BindingDB's records for doi:10.1016/S0960-894X(00)80270-X (1991).

Experiment: Compound was tested for inhibitory activity against fucosyltransferase

Work on `OC[C@@H]1NC[C@@H](O)[C@@H](O)[C@@H]1O[C@@H]1O[C@@H](CO)[C@H](O)[C@H](O)[C@@H]1O` yielded an IC50 of 40 mM.
